Patent publication US20060204957A1, “Mta1s, a steriod hormone receptor corepressor” (priority 2002, published 2006)

Columns and labels:
[1] = system: PRE-mediated transcription; assay: PRE-mediated transcription in ZR-75R cells; format: cell-based, human; conditions: MTA1s-overexpressing ZR-75R cells
Protocol: Transfection was performed using a Fugene-6 kit (Roche Biochemical, New Jersey) as per the manufacturer's instructions. Cells were transiently cotransfected with a reporter construct and (β-galactosidase, and assayed for luciferase activity as described.

ERα = target: T1, ERα (Homo sapiens, UniProt P03372); conditions: yeast AH109 two-hybrid
T1 sequence (P03372 1-536): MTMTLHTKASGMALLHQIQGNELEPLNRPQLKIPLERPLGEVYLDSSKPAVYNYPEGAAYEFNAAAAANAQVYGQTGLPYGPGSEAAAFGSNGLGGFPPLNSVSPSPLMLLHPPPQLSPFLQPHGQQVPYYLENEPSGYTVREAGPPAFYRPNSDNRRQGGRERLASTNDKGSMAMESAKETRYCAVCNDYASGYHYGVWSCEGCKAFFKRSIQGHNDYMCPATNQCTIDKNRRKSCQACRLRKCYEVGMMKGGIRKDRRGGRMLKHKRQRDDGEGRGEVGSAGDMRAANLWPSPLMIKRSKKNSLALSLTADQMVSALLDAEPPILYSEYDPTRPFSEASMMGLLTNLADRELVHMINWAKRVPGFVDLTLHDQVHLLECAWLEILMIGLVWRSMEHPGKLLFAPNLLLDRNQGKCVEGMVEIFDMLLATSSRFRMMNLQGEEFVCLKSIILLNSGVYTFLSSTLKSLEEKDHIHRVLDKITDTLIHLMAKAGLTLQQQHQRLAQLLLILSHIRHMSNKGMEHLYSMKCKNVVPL
T1 sequence (Q13330 1-429 isoform Q13330-2 partner limits assumed): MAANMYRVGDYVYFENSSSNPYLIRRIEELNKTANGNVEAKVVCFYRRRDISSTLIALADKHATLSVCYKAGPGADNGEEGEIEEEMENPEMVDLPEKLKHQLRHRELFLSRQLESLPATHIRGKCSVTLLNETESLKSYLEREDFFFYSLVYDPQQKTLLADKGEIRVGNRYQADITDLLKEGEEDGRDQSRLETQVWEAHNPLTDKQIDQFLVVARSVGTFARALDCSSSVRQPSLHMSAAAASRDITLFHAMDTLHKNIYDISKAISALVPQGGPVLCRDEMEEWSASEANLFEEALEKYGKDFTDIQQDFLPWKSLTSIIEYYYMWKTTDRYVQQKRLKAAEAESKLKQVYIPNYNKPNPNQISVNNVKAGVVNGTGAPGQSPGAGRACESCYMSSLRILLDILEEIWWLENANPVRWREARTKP

ZR-75R cells = assay: Growth of ZR-75R cells in monolayer culture; format: cell-based, human
From the text: FIGS. 11A-11E. MTA1s may stimulate aggressive phenotypes in breast cancer cells. FIG. 11A illustrates an example of MTA1s overexpression inhibiting PRE-driven but not RARE-driven transcription. FIG. […] illustrates the Growth-rate of ZR/pcDNA or ZR/MTA1s cells in monolayer culture in the presence of E2 alone or with ICI 182780 (10^−9 M for 4 days). FIG. 11C show an exemplary effect of MTA1s expression on anchorage independent growth of ZR/pcDNA and ZR/MTA1s cells grown in 10% serum in the presence or absence of ICI 182780 (10^−9 M) or 4HT (10^−8 M) for 14 days. […] FIG. 11E illustrates that MTA1s may induce tumorigenesis of breast cancer cells. 5×10^6 cells were subcutaneously inoculated in the athymic nude mice (n=10), and tumor volumes at day 21 were recorded.

ER = assay: Confocal localization of ER in ZR-75R clones after estradiol; format: cell-based, human
Protocol: FIGS. 3A-3H. MTA1s typically localizes in the cytoplasm and interacts with ER. FIG. 3A illustrates an example of confocal microscopy of MCF-7 cells transiently transfected with T7-tagged MTA1 or MTA1s constructs. FIG. 3B illustrates exemplary expression of T7-MTA1s in ZR75 clones. FIG. 3C illustrates exemplary nuclear and cytoplasmic fractions that were assessed by immunoblotting with the indicated antibodies. […] FIG. 3F illustrates exemplary GST pull-down assays. […] FIG. 3H illustrates an example of expression of MTA1s and ERα in indicated cells by confocal microscopy.
The cellular localization of T7-MTA1s, and ER was determined using indirect immunofluorescence as described in Mazumdar et al., 2001, herein incorporated by reference. Cells were treated with or without anti-T7 mAb or ER Ab followed by 546-Alexa-labeled goat anti-mouse Ab or 488-Alexa.

## CC(=O)[C@H]1CC[C@H]2[C@@H]3CCC4=CC(=O)CC[C@]4(C)[C@H]3CC[C@]12C [progesterone]
[1]
  stimulation of PRE-mediated transcription: failed to stimulate

## C[C@]12CC[C@@H]3c4ccc(O)cc4C[C@@H](CCCCCCCCC[S+]([O-])CCCC(F)(F)C(F)(F)F)[C@H]3[C@@H]1CC[C@@H]2O (stereo partly drawn) [ICI 182780]
ERα
  effect on interaction between ERα and MTA1s: failed to block

## C[C@]12CC[C@@H]3c4ccc(O)cc4CC[C@H]3[C@@H]1CC[C@@H]2O [estradiol, 17β-estradiol]
ZR-75R cells; ZR-75R cells expressing MTA1s
  cell growth response: did not respond
ZR-75R cells; ZR-75R cells expressing control vector
  cell growth: stimulated
ER; ZR-75R/vector cells
  redistribution of ER to the nucleus: rapidly redistributed the ER to the nucleus
ER; estradiol-activated ZR-75R/MTA1s cells
  cells in which ER was not redistributed to the nucleus: over 90%
